Measurements taken from ChEMBL document CHEMBL3813693, “Gastroprotective effects of new diterpenoid derivatives from Azorella cuatrecasasii Mathias & Constance obtained using a β-cyclodextrin complex with microbial and chemical transformations” (2016).

Assays:
[1] = tested on: Mus musculus; test: Gastroprotective activity in Swiss albino mouse assessed as reduction in HCl/EtOH-induced gastric lesions at 20 mg/kg, po dosed 50 mins before HCl/EtOH challenge measured after 1 hr relative to control; format: functional; conditions: Stomach
[2] = tested on: Mus musculus; test: Gastroprotective activity in Swiss albino mouse model of HCl/EtOH-induced ulcer assessed as lesion index at 20 mg/kg, po dosed 50 mins before HCl/EtOH challenge measured after 1 hr (reference value: 37.7 +/- 4.3 millimeter); format: functional

Compound	inhibition in vivo at 20 mg/kg [1] [%]	UI [2] [mm]
COC(=O)[C@]12CC[C@@]3(C)CC=C(CO)C=C[C@H]3[C@@H]1CC[C@@H]2C(C)C	18	31
COC(=O)[C@]12C[C@@H](OC(C)=O)[C@@]3(C)CC=C(COC(C)=O)C=C[C@H]3[C@@H]1CC[C@@H]2C(C)C	6	35.6
COC(=O)[C@]12CC[C@@]3(C)CC=C(COC(C)=O)C=C[C@H]3[C@@H]1CC[C@@H]2C(C)C	3	36.8
CC(C)[C@H]1CC[C@H]2[C@@H]3C=CC(CO)=CC[C@]3(C)[C@H](O)C[C@]12C(=O)O	69	11.8
Cc1c(OCC(F)(F)F)ccnc1C[S+]([O-])c1nc2ccccc2[nH]1 (stereo not drawn) [LANSOPRAZOLE]	57	16.1
CC(C)[C@H]1CC[C@H]2[C@@H]3C=CC(CO)=CC[C@]3(C)CC[C@]12C(=O)O	59	15.4
CC(=O)OCC1=CC[C@]2(C)CC[C@]3(C(=O)O)[C@@H](C(C)C)CC[C@H]3[C@@H]2C=C1	43	21.6
COC(=O)[C@]12C[C@@H](O)[C@@]3(C)CC=C(CO)C=C[C@H]3[C@@H]1CC[C@@H]2C(C)C	36	24.3
CC(=O)OCC1=CC[C@]2(C)[C@H](OC(C)=O)C[C@]3(C(=O)O)[C@@H](C(C)C)CC[C@H]3[C@@H]2C=C1	48	19.6
